Assay results from PubChem BioAssay AID2060486 (Molecular Pharmacology Branch, DTP, NCI, 2025).

System: IGROV1 complex spheroids (HUVEC, MSC), viability % test/control
Assay: Anticancer human tumor IGROV1 cell line growth inhibition [GQUAD];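 also: spheroids exposed to compounds for 7 days before readout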;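 as to viability, T/C: 100% = DMSO vehicle control viability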
Conditions: for IC50: curve of first compound; for viability, T/C: stronger effect = lower value; active = viability on the fitted dose curve at most 10% of control; inactive = the rest
In short: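 Tumor cells were grown as complex spheroids with HUVEC endothelial cells and mesenchymal stem cells as stroma. G-quadruplex stabilizers were combined with targeted agents over half-log dilutions from near the clinical Cmax, or from 10 microM.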

[1] = second compound 0.0316 µM, first compound 0.0316 µM
[2] = second compound 0.0316 µM, first compound 0.1 µM
[3] = second compound 0.0316 µM, first compound 0.316 µM
[4] = second compound 0.0316 µM, first compound 1 µM
[5] = second compound 0.0316 µM, first compound 3.16 µM
[6] = second compound 0.0316 µM, first compound 10 µM
[7] = second compound 0.1 µM, first compound 0.0316 µM
[8] = second compound 0.1 µM, first compound 0.1 µM
[9] = second compound 0.1 µM, first compound 0.316 µM
[10] = second compound 0.1 µM, first compound 1 µM
[11] = second compound 0.1 µM, first compound 3.16 µM
[12] = second compound 0.1 µM, first compound 10 µM
[13] = second compound 0.316 µM, first compound 0.0316 µM
[14] = second compound 0.316 µM, first compound 0.1 µM
[15] = second compound 0.316 µM, first compound 0.316 µM
[16] = second compound 0.316 µM, first compound 1 µM
[17] = second compound 0.316 µM, first compound 3.16 µM
[18] = second compound 0.316 µM, first compound 10 µM
[19] = second compound 1 µM, first compound 0.0316 µM
[20] = second compound 1 µM, first compound 0.1 µM
[21] = second compound 1 µM, first compound 0.316 µM
[22] = second compound 1 µM, first compound 1 µM
[23] = second compound 1 µM, first compound 3.16 µM
[24] = second compound 1 µM, first compound 10 µM
[25] = second compound 3.16 µM, first compound 0.0316 µM
[26] = second compound 3.16 µM, first compound 0.1 µM
[27] = second compound 3.16 µM, first compound 0.316 µM
[28] = second compound 3.16 µM, first compound 1 µM
[29] = second compound 3.16 µM, first compound 3.16 µM
[30] = second compound 3.16 µM, first compound 10 µM
[31] = second compound 10 µM, first compound 0.0316 µM
[32] = second compound 10 µM, first compound 0.1 µM
[33] = second compound 10 µM, first compound 0.316 µM
[34] = second compound 10 µM, first compound 1 µM
[35] = second compound 10 µM, first compound 3.16 µM
[36] = second compound 10 µM, first compound 10 µM

C=CC(=O)N1CCN(c2nc(=O)n(-c3c(C)ccnc3C(C)C)c3nc(-c4c(O)cccc4F)c(F)cc23)C(C)C1 (stereo not drawn) + Cc1cnc(CNC(=O)c2c(=O)c3ccc(N4CCCN(C)CC4)nc3n3c2sc2ccccc23)cn1
0.0784 µM: IC50 (second compound 0.1 µM)
> 10 µM: IC50 (second compound 0.0316 µM)
inactive: viability, T/C [1] 82.8% | viability, T/C [2] 77.2% | viability, T/C [3] 88.5% | viability, T/C [4] 60.1% | viability, T/C [5] 94.6% | viability, T/C [6] 66.9% | viability, T/C [7] 51.8% | viability, T/C [8] 49.3% | viability, T/C [9] 51.4% | viability, T/C [10] 43.8% | viability, T/C [11] 46.6% | viability, T/C [12] 51.4% | viability, T/C [13] 27% | viability, T/C [14] 44.7% | viability, T/C [15] 39.8% | viability, T/C [16] 33.4% | viability, T/C [17] 44.9% | viability, T/C [18] 28.6% | viability, T/C [19] 18.5% | viability, T/C [20] 20.1% | viability, T/C [21] 17% | viability, T/C [22] 17.7% | viability, T/C [23] 26.8% | viability, T/C [24] 19.7% | viability, T/C [25] 10.2% | viability, T/C [26] 11.6% | viability, T/C [27] 11.6% | viability, T/C [28] 12.5% | viability, T/C [29] 15.6% | viability, T/C [30] 12.9% | viability, T/C [31] 12.3% | viability, T/C [32] 16.2% | viability, T/C [33] 16.6% | viability, T/C [34] 15.6% | viability, T/C [35] 14.6% | viability, T/C [36] 10%
< 0.0316 µM: IC50 (second compound 0.316 µM) | IC50 (second compound 1 µM) | IC50 (second compound 3.16 µM) | IC50 (second compound 10 µM)

CCCS(=O)(=O)Nc1ccc(F)c(C(=O)c2c[nH]c3ncc(-c4ccc(Cl)cc4)cc23)c1F + CN(C)c1ccc(Nc2c3ccc(NC(=O)CCN4CCCC4)cc3nc3cc(NC(=O)CCN4CCCC4)ccc23)cc1
5.61 µM: IC50 (second compound 0.1 µM)
inactive: viability, T/C [1] 103% | viability, T/C [2] 84.7% | viability, T/C [3] 112% | viability, T/C [4] 79.3% | viability, T/C [5] 86.7% | viability, T/C [6] 17.7% | viability, T/C [7] 103% | viability, T/C [8] 73.7% | viability, T/C [9] 90.4% | viability, T/C [10] 72% | viability, T/C [11] 83.5% | viability, T/C [12] 16.2% | viability, T/C [13] 86.2% | viability, T/C [14] 99.7% | viability, T/C [15] 98% | viability, T/C [16] 80.5% | viability, T/C [17] 82.3% | viability, T/C [18] 15.1% | viability, T/C [19] 57.9% | viability, T/C [20] 97.9% | viability, T/C [21] 88% | viability, T/C [22] 89.3% | viability, T/C [23] 77.7% | viability, T/C [24] 13.2% | viability, T/C [25] 78.1% | viability, T/C [26] 88.7% | viability, T/C [27] 82.4% | viability, T/C [28] 96.2% | viability, T/C [29] 67.4% | viability, T/C [31] 53.1% | viability, T/C [32] 59.3% | viability, T/C [33] 60.7% | viability, T/C [34] 67.9% | viability, T/C [35] 29.2%
active: viability, T/C [30] 9.77% | viability, T/C [36] 3.73%
5.19 µM: IC50 (second compound 1 µM)
4.48 µM: IC50 (second compound 3.16 µM)
5.39 µM: IC50 (second compound 0.316 µM)
1.46 µM: IC50 (second compound 10 µM)
5.67 µM: IC50 (second compound 0.0316 µM)

Cn1ncnc1[C@H]1c2n[nH]c(=O)c3cc(F)cc(c23)N[C@@H]1c1ccc(F)cc1 + Cc1[nH]c2ccc(F)cc2c1-c1nc2c3cccnc3c3ncccc3c2[nH]1
0.053 µM: IC50 (second compound 0.316 µM)
< 0.000999 µM: IC50 (second compound 1 µM) | IC50 (second compound 3.16 µM) | IC50 (second compound 10 µM)
0.149 µM: IC50 (second compound 0.0316 µM)
active: viability, T/C (second compound 1 µM, first compound 0.000999 µM) 5.11% | viability, T/C (second compound 1 µM, first compound 0.00316 µM) 4.97% | viability, T/C (second compound 1 µM, first compound 0.00999 µM) 5.21% | viability, T/C [19] 4.33% | viability, T/C (second compound 1 µM, first compound 0.0999 µM) 4.79% | viability, T/C [21] 4.17% | viability, T/C (second compound 3.16 µM, first compound 0.000999 µM) 4.43% | viability, T/C (second compound 3.16 µM, first compound 0.00316 µM) 4.31% | viability, T/C (second compound 3.16 µM, first compound 0.00999 µM) 4.37% | viability, T/C [25] 4.14% | viability, T/C (second compound 3.16 µM, first compound 0.0999 µM) 4.64% | viability, T/C [27] 3.96% | viability, T/C (second compound 10 µM, first compound 0.000999 µM) 4.02% | viability, T/C (second compound 10 µM, first compound 0.00316 µM) 3.63% | viability, T/C (second compound 10 µM, first compound 0.00999 µM) 5.14% | viability, T/C [31] 4.68% | viability, T/C (second compound 10 µM, first compound 0.0999 µM) 4.53% | viability, T/C [33] 4.33%
inactive: viability, T/C (second compound 0.0316 µM, first compound 0.000999 µM) 105% | viability, T/C (second compound 0.0316 µM, first compound 0.00316 µM) 79.6% | viability, T/C (second compound 0.0316 µM, first compound 0.00999 µM) 86.7% | viability, T/C [1] 62.3% | viability, T/C (second compound 0.0316 µM, first compound 0.0999 µM) 67.7% | viability, T/C [3] 33.4% | viability, T/C (second compound 0.1 µM, first compound 0.000999 µM) 100% | viability, T/C (second compound 0.1 µM, first compound 0.00316 µM) 80.1% | viability, T/C (second compound 0.1 µM, first compound 0.00999 µM) 83% | viability, T/C [7] 48.9% | viability, T/C (second compound 0.1 µM, first compound 0.0999 µM) 53.1% | viability, T/C [9] 32% | viability, T/C (second compound 0.316 µM, first compound 0.000999 µM) 96.4% | viability, T/C (second compound 0.316 µM, first compound 0.00316 µM) 81.9% | viability, T/C (second compound 0.316 µM, first compound 0.00999 µM) 68.9% | viability, T/C [13] 54.8% | viability, T/C (second compound 0.316 µM, first compound 0.0999 µM) 46.5% | viability, T/C [15] 27.5%
0.0735 µM: IC50 (second compound 0.1 µM)

O=c1[nH]cc(F)c(=O)[nH]1 + CN(C)c1ccc(Nc2c3ccc(NC(=O)CCN4CCCC4)cc3nc3cc(NC(=O)CCN4CCCC4)ccc23)cc1
6.4 µM: IC50 (second compound 0.316 µM)
inactive: viability, T/C [1] 112% | viability, T/C [2] 96.7% | viability, T/C [3] 104% | viability, T/C [4] 82.3% | viability, T/C [5] 90.6% | viability, T/C [6] 27.7% | viability, T/C [7] 97.6% | viability, T/C [8] 94% | viability, T/C [9] 83.1% | viability, T/C [10] 84.3% | viability, T/C [11] 90.4% | viability, T/C [12] 29.8% | viability, T/C [13] 92.1% | viability, T/C [14] 87.8% | viability, T/C [15] 96.8% | viability, T/C [16] 88.2% | viability, T/C [17] 83% | viability, T/C [18] 29.1% | viability, T/C [19] 69.5% | viability, T/C [20] 72% | viability, T/C [21] 78.8% | viability, T/C [22] 90.8% | viability, T/C [23] 90.4% | viability, T/C [24] 24.2% | viability, T/C [25] 73.3% | viability, T/C [26] 84.8% | viability, T/C [27] 94.1% | viability, T/C [28] 86.2% | viability, T/C [29] 81% | viability, T/C [30] 27.7% | viability, T/C [31] 66.5% | viability, T/C [32] 58% | viability, T/C [33] 52.8% | viability, T/C [34] 70.1% | viability, T/C [35] 55.2% | viability, T/C [36] 16.4%
6.18 µM: IC50 (second compound 3.16 µM)
6.78 µM: IC50 (second compound 0.1 µM)
6.41 µM: IC50 (second compound 0.0316 µM)
5.9 µM: IC50 (second compound 1 µM)
3.69 µM: IC50 (second compound 10 µM)
